In brackets after ≈: the same amount, converted by molar mass.
What was measured:
[1] = tested on: SK-OV-3 (ovarian cancer cell); experiment: MTT solid tumor cell growth inhibition, 72 h; type: cell-based, human; details: Homo sapiens, SK-OV-3, 72 h
Procedure, shortened: (§1)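 Cells seeded at 4000 per well in DMEM high glucose with 10% FBS were grown 24 h at 37° C, 5% CO2, then exposed to homoharringtonine derivatives at various concentrations for 72 h. Viable cells were measured by MTT, and viability (%) was expressed relative to untreated controls set at 100%.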

[2] = tested on: U87 MG (malignant glioma cell); experiment: MTT solid tumor cell growth inhibition, 72 h; type: cell-based, human; details: Homo sapiens, U-87 MG
Procedure, shortened: as §1

[3] = tested on: CNE (nasopharyngeal carcinoma cell); experiment: MTT solid tumor cell growth inhibition, 72 h; type: cell-based, human; details: Homo sapiens
Procedure, shortened: as §1

[4] = tested on: PANC-1 (pancreatic cancer); experiment: MTT solid tumor cell growth inhibition, 72 h; type: cell-based, human; details: Homo sapiens, PANC-1, 72 h
Procedure, shortened: as §1

MG63 (osteosarcoma) = experiment: MTT solid tumor cell growth inhibition, 72 h; type: cell-based, human; details: Homo sapiens, MG 63, 72 h
Procedure, shortened: as §1

[5] = tested on: CaES-17 (esophageal cancer cell); experiment: MTT solid tumor cell growth inhibition, 72 h; type: cell-based, human; details: Homo sapiens, CaEs17, CaES-17, 72 h
Procedure, shortened: as §1

PC-3 (prostate cancer) = experiment: MTT solid tumor cell growth inhibition, 72 h; type: cell-based, human; details: Homo sapiens, PC-3, 72 h
Procedure, shortened: as §1

[6] = tested on: RPMI8226 (multiple myeloma); experiment: MTT multiple myeloma cell growth inhibition, 72 h; type: cell-based, human; details: Homo sapiens, RPMI-8226, RPMI8226, 72 h
Procedure, shortened: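 RPMI8226 cells at 6000 per well in 1640 medium with 10% fetal bovine serum, exposed to homoharringtonine derivatives at various concentrations. Incubation 72 h at 37° C, 5% CO2; viable cells read by MTT.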

A549 (human lung cancer) = experiment: MTT solid tumor cell growth inhibition, 72 h; type: cell-based; details: Homo sapiens, A549, 72 h
Procedure, shortened: as §1

[7] = tested on: Hela (human cervical cancer cell); experiment: MTT solid tumor cell growth inhibition, 72 h; type: cell-based; details: Homo sapiens, HeLa
Procedure, shortened: as §1

[8] = tested on: Becap37 (human breast cancer cell); experiment: MTT solid tumor cell growth inhibition, 72 h; type: cell-based; details: Homo sapiens, Becap37, 72 h
Procedure, shortened: as §1

[9] = tested on: RKO (human colon adenocarcinoma cell); experiment: MTT solid tumor cell growth inhibition, 72 h; type: cell-based; details: Homo sapiens
Procedure, shortened: as §1

[10] = tested on: MGC 803 (human gastric cancer cell); experiment: MTT solid tumor cell growth inhibition, 72 h; type: cell-based; details: Homo sapiens, MGC 803, 72 h
Procedure, shortened: as §1

[11] = tested on: Hep-2 (human hepatocellular carcinoma); experiment: MTT solid tumor cell growth inhibition, 72 h; type: cell-based; details: Homo sapiens, HEp-2, Hep2, 72 h
Procedure, shortened: as §1

[12] = tested on: Huh7 (human liver cancer cell); experiment: MTT solid tumor cell growth inhibition, 72 h; type: cell-based; details: Homo sapiens, Huh-7, Huh7, 72 h
Procedure, shortened: as §1

[13] = tested on: A549, PANC-1, Becap37, MG63, Huh7, RKO, Hela, CaES-17, CNE, Hep-2, PC-3 and SK-OV-3; experiment: Anti-human solid tumor effect, summary over cell lines; type: cell-based; details: result in words, summary of Table 2
Procedure: Human solid tumor cell lines: Hep-2 ([…]), A549 (human lung cancer), CaES-17 (esophageal cancer cell), PC-3 (prostate cancer), CNE (nasopharyngeal carcinoma cell), and SK-OV-3 (ovarian cancer cell), all of which are purchased from China Center For Type Culture Collection; RKO (human colon adenocarcinoma cell), MGC 803 (human gastric cancer cell), MG63 (osteosarcoma) and U87 MG (malignant glioma cell), all of which are purchased from Fuxiang Bio-tech Co. Ltd., Shanghai, China; PANC-1 (pancreatic cancer), Huh7 (human liver cancer cell), Becap37 (human breast cancer cell), and Hela (human cervical cancer cell), all of which are donated by Cancer Research Institute of Zhejiang University, China.
Obtaining 4000 well-growing human solid tumor cells and inoculating them into wells of a 96-well cell culture plate. The culture medium is DMEM High Glucose cell culture medium containing 10% fetal bovine serum. The plate is placed in a carbon dioxide cell incubator (5% CO2) at 37° C. and incubating for 24 hours. After adding the homoharringtonine derivatives of different concentration and mixing uniformly, the plate is placed in a carbon dioxide cell incubator (5% CO2) at 37° C. and incubating for 72 hours. Then the viable cell concentration is determined by the MTT method and the cell viability (%) after drug treatment is calculated. In this experiment, the cell viability of control group (not treated with any compound) is set as 100%.

[14] = tested on: K562/adr, NB4, Kasumi-1 and H9; experiment: Anti-leukemia activity, summary over cell lines; type: cell-based, human; details: result in words, summary of Table 1
From the text: Leukemia cell lines: K562/adr (drug-resistant, chronic myeloid leukemia, CML), NB4 (acute promyelocytic leukemia, AML), Kasumi-1 (acute myeloid leukemia M2 type, AML-M2), Jurkat (acute lymphoblastic leukemia, ALL), all of which are donated by Cancer Research Institute of Zhejiang University, China; and H9 (acute lymphoblastic leukemia, ALL), which is purchased from China Center for Type Culture Collection.
Obtaining 6000 well-growing leukemia cells and inoculating them into wells of a 96-well cell culture plate. The culture medium is the 1640 cell culture medium containing 10% fetal bovine serum. After adding the homoharringtonine derivatives of different concentrations and mixing uniformly, placing the plate in a carbon dioxide cell incubator (5% CO2) at 37° C. and incubating for 72 hours. Then the viable cell concentration is determined by the MTT method. In this experiment, the cell viability in control group (not treated with any compound) is set as 100%.

[15] = tested on: H9 (acute lymphoblastic leukemia, ALL); experiment: MTT leukemia cell growth inhibition, 72 h; type: cell-based, human; details: Homo sapiens, H9, 72 h
Procedure, shortened: (§2)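 Cells were seeded at 6000 per well in RPMI-1640 with 10% FBS and exposed to homoharringtonine derivatives at various concentrations for 72 h at 37°C, 5% CO2. Viable cells were measured by MTT. Untreated controls were set as 100% viability.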

[16] = tested on: NB4 (acute promyelocytic leukemia, AML); experiment: MTT leukemia cell growth inhibition, 72 h; type: cell-based, human; details: Homo sapiens, NB4, 72 h
Procedure, shortened: as §2

[17] = tested on: Kasumi-1 (acute myeloid leukemia M2 type, AML-M2); experiment: MTT leukemia cell growth inhibition, 72 h; type: cell-based, human; details: Homo sapiens, Kasumi-1, 72 h
Procedure, shortened: as §2

[18] = tested on: K562/adr (drug-resistant, chronic myeloid leukemia, CML); experiment: MTT leukemia cell growth inhibition, 72 h; type: cell-based, human; details: Homo sapiens, K562/Adr
Procedure, shortened: as §2

[19] = tested on: Jurkat (acute lymphoblastic leukemia, ALL); experiment: MTT leukemia cell growth inhibition, 72 h; type: cell-based, human; details: Homo sapiens
Procedure, shortened: as §2

COC1=C[C@]23CCCN2CCc2cc4c(cc2[C@@H]3[C@@H]1OC(=O)[C@@](O)(CCCC(C)(C)O)CC(=O)N1CCC(N(C)C)CC1)OCO4 [BS-HH-050]
IC50 ([1]; read-out: IC50): 0.57 µg/mL (≈ 0.888 µM) | IC90 ([1]; read-out: IC90): > 16 µg/mL | IC50 ([2]; read-out: IC50): 0.24 µg/mL (≈ 0.374 µM) | IC90 ([2]; read-out: IC90): 1.06 µg/mL (≈ 1.65 µM) | IC50 ([3]; read-out: IC50): 0.15 µg/mL (≈ 0.234 µM) | IC90 ([3]; read-out: IC90): > 16 µg/mL | IC50 ([4]; read-out: IC50): 0.23 µg/mL (≈ 0.358 µM) | IC90 ([4]; read-out: IC90): > 16 µg/mL | IC50 (MG63 (osteosarcoma); read-out: IC50): 0.19 µg/mL (≈ 0.296 µM) | IC90 (MG63 (osteosarcoma); read-out: IC90): 7.22 µg/mL (≈ 11.2 µM) | IC50 ([5]; read-out: IC50): 0.46 µg/mL (≈ 0.717 µM) | IC90 ([5]; read-out: IC90): 16 µg/mL (≈ 24.9 µM) | IC50 (PC-3 (prostate cancer); read-out: IC50): 0.45 µg/mL (≈ 0.701 µM) | IC90 (PC-3 (prostate cancer); read-out: IC90): > 16 µg/mL | IC50 ([6]; read-out: IC50): 0.1 µg/mL (≈ 0.156 µM) | IC90 ([6]; read-out: IC90): 0.38 µg/mL (≈ 0.592 µM) | IC50 (A549 (human lung cancer); read-out: IC50): 0.7 µg/mL (≈ 1.09 µM) | IC90 (A549 (human lung cancer); read-out: IC90): > 16 µg/mL | IC50 ([7]; read-out: IC50): 0.46 µg/mL (≈ 0.717 µM) | IC90 ([7]; read-out: IC90): > 16 µg/mL | IC50 ([8]; read-out: IC50): 0.26 µg/mL (≈ 0.405 µM) | IC90 ([8]; read-out: IC90): 16 µg/mL (≈ 24.9 µM) | IC50 ([9]; read-out: IC50): 0.053 µg/mL (≈ 0.0826 µM) | IC90 ([9]; read-out: IC90): 0.23 µg/mL (≈ 0.358 µM) | IC50 ([10]; read-out: IC50): 0.18 µg/mL (≈ 0.28 µM) | IC90 ([10]; read-out: IC90): 0.48 µg/mL (≈ 0.748 µM) | IC50 ([11]; read-out: IC50): 0.31 µg/mL (≈ 0.483 µM) | IC90 ([11]; read-out: IC90): > 16 µg/mL | IC50 ([12]; read-out: IC50): 0.1 µg/mL (≈ 0.156 µM) | IC90 ([12]; read-out: IC90): 16 µg/mL (≈ 24.9 µM) | anti-A549, anti-PANC-1, anti-Becap37, anti-MG63, anti-Huh7, anti-RKO, anti-Hela, anti-CaES-17, anti-CNE, anti-Hep-2, anti-PC-3 and anti-SK-OV-3 effect [13]: strong | anti-K562/adr, anti-NB4, anti-Kasumi-1 and anti-H9 activity [14]: strong | IC50 ([15]; read-out: IC50): 0.13 µg/mL (≈ 0.203 µM) | IC90 ([15]; read-out: IC90): 0.35 µg/mL (≈ 0.545 µM) | IC50 ([16]; read-out: IC50): 0.08 µg/mL (≈ 0.125 µM) | IC90 ([16]; read-out: IC90): 0.17 µg/mL (≈ 0.265 µM) | IC50 ([17]; read-out: IC50): 0.041 µg/mL (≈ 0.0639 µM) | IC90 ([17]; read-out: IC90): 0.18 µg/mL (≈ 0.28 µM) | IC50 ([18]; read-out: IC50): 0.72 µg/mL (≈ 1.12 µM) | IC90 ([18]; read-out: IC90): 8.99 µg/mL (≈ 14 µM) | IC50 ([19]; read-out: IC50): 0.12 µg/mL (≈ 0.187 µM) | IC90 ([19]; read-out: IC90): 16 µg/mL (≈ 24.9 µM)

Reference: US9676789B2, “Aminated derivative of homoharringtonine, preparation method therefor, and application thereof” (HANGZHOU BENSHENG PHARMACEUTICAL CO., LTD., priority 2011, dated 2017)
